# Measured values from patent US9481673B2, “6-alkynyl-pyridine derivatives” (Boehringer Ingelheim International GmbH, priority 2014, dated 2016).
# Assays:
# cIAP1 BIR3 = cIAP1 BIR3 (Homo sapiens (Human), UniProt Q13490); experiment: cIAP1 BIR3 binding assay (DELFIA), BIR3-SMAC peptide interaction; conditions: (S)-isomers; BIR3 domain 10 nM, SMAC peptide 10 nM; read-out: cIAP1 BIR-3 IC50
# P450 2C19 = P450 2C19 (Homo sapiens (Human), UniProt P33261); experiment: Cytochrome P450 isoenzyme inhibition assay, hydroxylation of Mephenytoin; assay type: in vitro ADME; conditions: (S)-isomers; human liver microsomes, 37° C.
# P450 2C8 = P450 2C8 (Homo sapiens (Human), UniProt P10632); experiment: Cytochrome P450 isoenzyme inhibition assay, deethylation of Amodiaquine; assay type: in vitro ADME; conditions: (S)-isomers; human liver microsomes, 37° C.
# P450 2C9 = P450 2C9 (Homo sapiens (Human), UniProt P11712); experiment: Cytochrome P450 isoenzyme inhibition assay, hydroxylation of Diclofenac; assay type: in vitro ADME; conditions: (S)-isomers; human liver microsomes, 37° C.
# P450 3A4 = P450 3A4 (Homo sapiens (Human), UniProt P08684); experiment: Cytochrome P450 isoenzyme inhibition assay, hydroxylation of Midazolam; assay type: in vitro ADME; conditions: (S)-isomers; human liver microsomes, 37° C.
# [1] = Solubility measurement (DMSO solution precipitation method); assay type: physicochemical; conditions: aqueous buffer, kinetic from dmso stock; (S)-isomers; McIlvaine buffer pH 6.8, 24 h shaking at ambient temperature; read-out: Sol pH 6.8
SMILES,IC50 (cIAP1 BIR3) [µM],IC50 (P450 2C19) [µM],IC50 (P450 2C8) [µM],IC50 (P450 2C9) [µM],IC50 (P450 3A4) [µM],solubility kinetic at 24 h [1] [µg/mL]
"CN[C@@H](C)C(=O)Nc1ccc(-c2c(-c3cccnc3OC)nc3cc(C)ccn23)c(C#Cc2ccc3c(C)nccc3c2)n1 [(S)-1, (2S)-N-{5-[2-(2-methoxypyridin-3-yl)-7-methylimidazo[1,2-a]pyridin-3-yl]-6-[2-(1-methylisoquinolin-6-yl)ethynyl]pyridin-2-yl}-2-(methyl-amino)propanamide]",0.001,> 50,11,38,> 50,35
"CN[C@@H](C)C(=O)Nc1ccc(-c2c(-c3cnn(C)c3)nc3cc(C)ccn23)c(C#Cc2ccc3c(C)nccc3c2)n1 [(S)-3, (2S)-N-{5-[7-methyl-2-(1-methyl-1H-pyrazol-4-yl)-imidazo[1,2-a]pyridin-3-yl]-6-[2-(1-methyl-isoquinolin-6-yl)-ethynyl]pyridin-2-yl}-2-(methylamino)-propanamide]",0.001,> 50,14,> 50,> 50,1
"CN[C@@H](C)C(=O)Nc1ccc(-c2c(-c3cncn3C)nc3cc(C)ccn23)c(C#Cc2ccc3c(C)nccc3c2)n1 [(S)-4, (2S)-N-{5-[7-methyl-2-(1-methyl-1H-imidazol-5-yl)-imidazo[1,2-a]pyridin-3-yl]-6-[2-(1-methyl-isoquinolin-6-yl)-ethynyl]pyridin-2-yl}-2-(methylamino)-propanamide]",0.001,36,9.8,27,> 50,39
"CN[C@@H](C)C(=O)Nc1ccc(-c2c(-c3cccnc3C)nc3cc(C)ccn23)c(C#Cc2ccc3c(C)nccc3c2)n1 [(S)-5, (2S)-N-{5-[7-methyl-2-(2-methylpyridin-3-yl)imidazo[1,2-a]-pyridin-3-yl]-6-[2-(1-methylisoquinolin-6-yl)ethynyl]pyridin-2-yl}-2-(methylamino)-propanamide]",0.002,> 50,1.3,> 50,> 50,< 1
"CN[C@@H](C)C(=O)Nc1ccc(-c2c(-c3cccnc3OC)nc3cc(C)ccn23)c(C#Cc2ccc3c(ccc(=O)n3C)c2)n1 [(S)-10, (2S)-N-{5-[2-(2-methoxypyridin-3-yl)-7-methylimidazo[1,2-a]pyridin-3-yl]-6-[2-(1-methyl-2-oxo-1,2-dihydroquinolin-6-yl)-ethynyl]pyridin-2-yl}-2-(methylamino)-propanamide]",0.001,> 50,9.3,,> 50,35
"CN[C@@H](C)C(=O)Nc1ccc(-c2c(-c3ccnc(C)c3)nc3cc(C)ccn23)c(C#Cc2ccccc2)n1 [(S)-11, (2S)-N-{5-[7-methyl-2-(2-methylpyridin-4-yl)imidazo[1,2-a]-pyridin-3-yl]-6-(2-phenylethynyl)pyridin-2-yl}-2-(methyl-amino)propanamide]",0.001,14,15,> 50,46,
"CN[C@@H](C)C(=O)Nc1ccc(-c2c(-c3ccnc(OC)c3)nc3cc(C)ccn23)c(C#Cc2ccc3c(ccc(=O)n3C)c2)n1 [(S)-13, (2S)-N-{5-[2-(2-methoxypyridin-4-yl)-7-methylimidazo[1,2-a]pyridin-3-yl]-6-[2-(1-methyl-2-oxo-1,2-dihydroquinolin-6-yl)-ethynyl]pyridin-2-yl}-2-(methylamino)-propanamide]",0.001,,4.5,> 50,> 50,< 1
"CN[C@@H](C)C(=O)Nc1ccc(-c2c(-c3cccnc3OC)nc3ccccn23)c(C#Cc2ccc3c(C)nccc3c2)n1 [(S)-16, (2S)-N-{5-[2-(2-methoxypyridin-3-yl)imidazo[1,2-a]-pyridin-3-yl]-6-[2-(1-methylisoquinolin-6-yl)ethynyl]pyridin-2-yl}-2-(methylamino)-propanamide]",,> 50,3.4,21,> 50,17
